Reference: PubChem BioAssay (NCI)
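Where inhibition never reached the appropriate level, the endpoint shown equals the highest concentration tested. Otherwise, values were interpolated linearly from a five-concentration, 48-hour dose response in 96-well plates. At the TGI there is no net growth.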

Experiments:
Experiment in all cases: DTP human tumour cell line panel, 48 h
[1] = test system: M14 melanoma
[2] = test system: HOP-92 NSCLC
[3] = test system: SNB-78 CNS
[4] = test system: SK-MEL-28 melanoma
[5] = test system: SK-OV-3 ovarian
[6] = test system: MOLT-4 leukemia
[7] = test system: KM20L2 colon
[8] = test system: CAKI-1 renal
[9] = test system: M19-MEL melanoma
[10] = test system: MDA-MB-435
[11] = test system: BT-549 breast
[12] = test system: MDA-N

SMILES	TGI [1] [µM]	TGI [2] [µM]	TGI [3] [µM]	TGI [4] [µM]	TGI [5] [µM]	TGI [6] [µM]	TGI [7] [µM]	TGI [8] [µM]	TGI [9] [µM]	TGI [10] [µM]	TGI [11] [µM]	TGI [12] [µM]
Cc1cnoc1/N=C1\C=C(Nc2oncc2C)C(=O)c2ccccc21	> 100	> 100	> 100	> 100	> 100	> 100	> 100	> 100	–	–	–	–
CC(C)NC1CCCCC2c3ccccc3C12O (configuration not stated)	> 100	–	> 100	> 100	> 100	> 100	> 100	–	> 100	–	–	–
COc1ccc(/C=C2\C(=O)N(C(=O)c3ccc(NC(C)=O)cc3)N=C2C)cc1OC	> 100	–	> 100	> 100	–	> 100	–	> 100	> 100	–	–	–
O=C1C(NS(=O)(=O)c2ccccc2)=C(n2ccnc2)C(=O)c2ccccc21	> 100	> 100	–	> 100	> 100	> 100	–	> 100	–	> 100	> 100	> 100
CC(=O)N1N=C(c2ccccc2)NC(=O)C1c1cc(C)c(O)c(C)c1 (configuration not stated)	> 100	38.8	–	> 100	34.3	> 100	–	> 100	–	> 100	54.1	> 100
COc1cc2ncnc(Nc3cccc(Br)c3)c2cc1OC	20.6	36.3	–	> 44.9	19	> 65.5	–	> 52.1	–	49.7	> 50.8	> 42.9
CC1OC1C(=O)P(=O)(O)O (configuration not stated)	> 100	> 100	–	> 100	> 100	> 100	–	> 100	–	> 100	> 100	> 100
c1ccc(CCCN2C3CCC2CN(CCOC(c2ccccc2)c2ccccc2)C3)cc1	17.3	25.5	–	28.2	29.3	25.3	–	25.7	–	29	24.9	25.9
NCC(=O)N[C@H]1c2ccsc2/C(=N/O)[C@H]1O	> 100	> 100	–	> 100	> 100	> 100	–	> 100	–	> 100	> 100	> 100
CCN1CC2=C(OC(N)=C(C#N)C2c2ccc(Cl)cc2)/C(=C/c2ccc(Cl)cc2)C1 (configuration not stated)	> 100	58.6	–	42.9	81.5	> 100	–	30.5	–	> 100	> 100	> 100
OC1CCN2Cc3ccccc3N=C12 (configuration not stated)	> 100	> 100	–	> 100	> 100	> 100	–	> 100	–	> 100	> 100	> 100
CN(C)c1ccc(-c2c(C#N)c(-c3ccccc3)n(NS(=O)(=O)c3ccccc3)c(=O)c2C#N)cc1	> 100	> 100	–	> 100	> 100	55.8	–	> 100	–	> 100	> 100	> 100
CCOC(=O)c1ccc(N2C(=O)/C(=C/c3ccc(N(CCC#N)CCC#N)cc3)N=C2c2cc([N+](=O)[O-])ccc2Cl)cc1	–	> 100	> 100	> 100	> 100	> 100	> 100	> 100	> 100	–	–	–
CC(C)C(Sc1nc(-c2ccccc2)c(-c2ccccc2)[nH]1)C(=O)N/N=C/c1ccc(Cl)cc1 (configuration not stated)	33.7	54.2	> 100	45.2	67	–	46.2	69.9	34.6	–	–	–
COC(=O)[C@H](Cc1ccccc1)NC(=O)N(CCN(CCC#N)C(=O)N[C@H](C(=O)OC)C(C)C)c1ccccc1	> 100	80.5	–	> 100	> 100	> 100	–	> 100	–	> 100	> 100	> 100
CCOC(=O)Cn1nnc2ccc(Nc3nc4ccccc4nc3C(=O)OCC)cc21	> 100	> 100	–	> 100	> 100	> 100	–	> 100	–	> 100	> 100	> 100
Nc1nc(N)c2cc(-c3cc4ccccc4[nH]3)ccc2n1	34.4	35.2	–	48.7	> 100	53.1	–	94.9	–	38.6	80.3	40.7

SMILES	TGI [1] [µM]	TGI [2] [µM]	TGI [3] [µM]	TGI [4] [µM]	TGI [5] [µM]	TGI [6] [µM]	TGI [7] [µM]	TGI [8] [µM]	TGI [9] [µM]	TGI [10] [µM]	TGI [11] [µM]	TGI [12] [µM]
CN(C)CC1CCC/C(=C\c2ccc(Cl)c(Cl)c2)C1=O (configuration not stated)	11.2	13.4	–	11.4	20.3	4.83	–	7.7	–	18.1	5.01	12.7
Cc1ccc2[nH]c3c(c2c1)C1CCC(C(C)(C)C)CC1C1C(=O)N(c2ccc(Oc4ccccc4)cc2)C(=O)C31 (configuration not stated)	> 100	45.7	–	> 100	94.7	7.92	–	45.4	–	> 100	64.1	> 100
COc1cc(/C=C2\CC3C4CC=C5C[C@@H](O)CC[C@]5(C)C4CC[C@]3(C)\C2=N\O)cc(OC)c1OC (some centres not stated)	27.6	> 100	–	> 100	> 100	> 100	–	37.7	–	> 100	37.2	69.6
O=C1c2cccnc2S(=O)(=O)N1c1ccc(Br)cc1	> 100	> 100	–	> 100	> 100	> 100	–	> 100	–	> 100	> 100	> 100
CCOC(=O)c1nc2ccccc2nc1Nc1cc(OC)c(OC)c(OC)c1	> 100	> 100	–	> 100	> 100	> 100	–	> 100	–	> 100	> 100	> 100
O=S(=O)(O)c1cc(O)c(N=NC2S(=O)(=O)OCCOS2(=O)=O)c2ccccc12	> 100	> 100	–	> 100	> 100	> 100	–	> 100	–	> 100	> 100	> 100
CCCCOc1ccc(/C=C/C2=[N+](CCO)CCO2)cc1	> 100	> 100	–	> 100	> 100	> 100	–	> 100	–	> 100	> 100	> 100
COP(=O)(OC)[C@@](O)(c1ccccc1)[C@@H](O)[C@H](O)c1ccccc1	> 100	> 100	–	> 100	> 100	> 100	–	> 100	–	> 100	> 100	> 100
CCOP(=O)(OCC)/C(C#N)=C/c1nc[nH]c1C	> 100	> 100	–	> 100	> 100	> 100	–	> 100	–	> 100	> 100	> 100
C[C@]12C(=O)OC[C@H](c3ccccc3)N1C(=O)N(Cc1ccccc1)[C@@H]2CO	> 100	> 100	–	> 100	> 100	> 100	–	> 100	–	> 100	> 100	> 100
COC1CCC(O)C(CO)O1 (configuration not stated)	> 100	> 100	> 100	> 100	> 100	> 100	> 100	–	> 100	–	–	–
COc1nc2ncc([C@@H](OC(C)=O)[C@@H](COC(C)=O)OC(C)=O)nc2c(=O)n1C	> 100	> 100	–	> 100	> 100	> 100	–	> 100	–	> 100	> 100	> 100
CCOc1cc2c(cc1OC)c[n+](C)c1c3cc(OC)c(OC)cc3ccc21	> 100	> 60.3	> 89.9	> 100	> 100	> 100	> 100	> 100	> 100	–	–	–
COC(=O)C1=C(C(=O)OC)C23CC4CCC2(C(=O)C1O3)C4(C)C (configuration not stated)	> 100	> 100	–	> 100	> 100	> 100	> 100	> 100	> 100	–	–	–
Cc1ccc(S(=O)(=O)N(CC(O)COc2ccccc2)c2c(F)c(F)c(F)c(F)c2F)cc1 (configuration not stated)	41	21.7	–	31.6	43.8	56.4	–	26.7	–	34.5	28.7	32.7
CCCCOC(=O)Nc1ccc(S(=O)(=O)Nc2c(Cl)cccc2Cl)cc1	> 100	75.7	–	81.5	75.3	88.4	–	82.7	–	72.6	60.7	> 100
